Assay results from patent publication US8409602B2, “Sealants for fetal membrane repair” (Northwestern University, priority 2009, dated 2013).

Legend:
fetal membranes [1] = assay: Direct contact-induced apoptosis (TUNEL) in fetal membranes; assay type: cell-based
Protocol: Toxicity tests. Toxicity of sealants for fetal membrane cells was evaluated using direct contact and elution tests, as per International Organization for Standardization (ISO) 10993-5 guidelines.
Direct contact cytotoxicity. […] 4.5 software (Carl Zeiss).

epididymal fat pad = assay: Material-only implantation at the murine epididymal fat pad; parameters: species or system C57BL6 mice; details: mouse, in vivo
Protocol: Material-only implantation. Healthy, age-matched male C57BL6 mice (Jackson Laboratories, Bar Harbor, Me.) were anesthetized with nebulized isoflurane (IsoThesia; Butler/Abbott Laboratories, North Chicago, Ill.) and intraperitoneal injection of 2% Avertin (2,2,2-tribromoethanol, Sigma) at 0.3 mg/g body weight, prior to shaving of the abdomen and sterile preparation of the surgical site. The left epididymal fat pad was exposed through midline lower abdominal incision and manipulation of the tissue flap. This thin, well-vascularized tissue is analogous to the omentum of larger mammals and has dimensions on the order of 1.5—1.5 cm. Sterile, two-component mixing and adhesive delivery was achieved by a dual-barrel blending connector with mixer device (Micromedics, St Paul, Minn.) containing sterile-filtered 300 mg/mL cPEG and 0.056 M sodium periodate, respectively.
Following topical delivery of approximately […] adhesive, the deposition site was left undisturbed for 1 min. The sample site was then manually reinserted into the lower abdominal cavity and the incision closed with double-layer suture. Mice were monitored postoperatively until conscious recovery. At three days, two weeks, six weeks, and one-year post-implant, the adhesive and associated adipose tissue was surgically removed from anesthetized mice, prior to euthanasia. […]

fetal membranes [2] = tested on: fetal membranes
Protocol: Direct contact cytotoxicity. Direct contact studies were performed with term fetal membranes obtained from three cases. The amniotic layer was chosen for sealant application (FIG. 1A) because this layer was proposed to be the strength-bearing layer of fetal membranes and major determinant for PPROM.^31 2×1 cm patches of freshly harvested fetal membranes were placed into wells of 6-well plates with amnion layer up. […] Membranes covered with sealant were covered with 3 mL culture medium (Ham's F-12/DMEM supplemented with 10% FBS, 100 U/ml penicillin, and 100 μg/ml streptomycin) and cultured for 24 h at 37° C. […] Deparaffinized sections were either stained with hematoxylin-eosin (H/E), or stained for apoptotic cells using TUNEL technology (Terminal deoxynucleotidyl transferase dUTP nick end labeling; In Situ Cell Death Detection Kit, Fluorescein (Roche Diagnostics GmbH, Mannheim, Germany). For total cell counts, all cell nuclei were counterstained with 4′,6-diamidin-2′-phenylindol-dihydrochlorid (DAPI; Sigma, Buchs, Switzerland). The histologic images were taken with a Zeiss Axiovert 200M fluorescent microscope (Carl Zeiss, Goettingen, Germany) equipped with an Zeiss AxioCam MRc digital camera and analysed with AxioVision Rel. […] One tissue section per case was analysed, taking four optical fields per section for analysis.

four-armed catechol-terminated polyethylene glycol (cPEG) [cPEG adhesive]
apoptosis compared with control (fetal membranes [1]): did not enhance apoptosis over control | immediate local reaction at deposition site (epididymal fat pad): no immediate visible inflammation or redness | non-specific postsurgical adhesions (epididymal fat pad): no evidence of non-specific postsurgical adhesions | effect on membrane morphology (fetal membranes [2]): normal membrane morphology appeared maintained
